According to patent publication US8906868B2, “Aminoglycoside derivatives” (Rempex Pharmaceuticals, Inc., priority 2010, dated 2014):
Values after ≈ are worked out from the molar mass of the structure shown. Read-outs that look alike come from different tables or passages of the source.

Assays:
[1] = system: ECM6006 aph(3′)-III; test: microbe, parasite or virus in culture; format: cell-based, Escherichia coli; conditions: Escherichia coli, read-out: Compound MIC on Bacterial Strains: ECM6006 aph(3′)-III
Method: (§1) To compare microbiological activity of the test compounds, minimum inhibitory concentrations (MIC.s) were determined. Antibiotic MICs were obtained using the broth microdilution method according to Clinical and Laboratory Standards Institute (CLSI) approved guidelines (Methods for dilution antimicrobial susceptibility tests for bacteria that grow aerobically; approved standard—7th ed. CLSI document M7-A7. Clinical and Laboratory Standards Institute, Wayne, Pa., incorporated herein by reference in its entirety). Antibiotics were dissolved as specified by CLSI (Performance standards for antimicrobial susceptibility testing; Seventeenth informational supplement. CLSI document M100-S17. Clinical and Laboratory Standards Institute, Wayne, Pa., incorporated herein by reference in its entirety), and were serially diluted 2-fold in cation adjusted Mueller Hinton Broth (CaMHB) at 2× concentration. Bacterial inoculums were prepared in CaMHB by suspension of a colony from an agar plate that was prepared the previous day to obtain a final concentration of 5×10^5CFU/ml. The plates were incubated for 18 hours at 35° C. […] MIC.s were determined by reading the turbidity of plate wells using a SpectraMax Plus384 plate reader (Molecular Devices, Sunnyvale, Calif., USA) at 600 nm and were confirmed by visual inspection.
(§2) Activity of the test compounds was determined using QC strains and strains with known aminoglycoside resistance mechanisms (TABLE 3). This specific panel contained strains expressing enzymes that covalently modify N2″, N3 and N3′ positions.

[2] = system: ECM6009 aac(3)-II; test: microbe, parasite or virus in culture; format: cell-based, Escherichia coli; conditions: Escherichia coli, read-out: Compound MIC on Bacterial Strains: ECM6009 aac(3)-II
Method: as §1, §2

[3] = system: ECM6010 ant(2″)-I; test: microbe, parasite or virus in culture; format: cell-based, Escherichia coli; conditions: Escherichia coli, read-out: Compound MIC on Bacterial Strains: ECM6010 ant(2″)-I
Method: as §1, §2

[4] = system: ECM6011 aph(3′)-I; test: microbe, parasite or virus in culture; format: cell-based, Escherichia coli; conditions: Escherichia coli, read-out: Compound MIC on Bacterial Strains: ECM6011 aph(3′)-I
Method: as §1, §2

[5] = system: ECM6003 rmtB; test: microbe, parasite or virus in culture; format: cell-based, Escherichia coli; conditions: Escherichia coli; Table 3; read-out: Compound MIC on Bacterial Strains: ECM6003 rmtB
Method: as §1, §2
The panel also contained a strain expressing ribosomal RNA methylase, RmtB.

[6] = system: EC1002 aph(3′)-IV; test: organism not typed; format: cell-based; conditions: read-out: Compound MIC on Bacterial Strains: EC1002 aph(3′)-IV
Method: as §1, §2

[7] = system: EC1001 acc(6′)-Ib; test: microbe, parasite or virus in culture; format: cell-based, Escherichia coli; conditions: Escherichia coli; Table 4; read-out: Compound MIC on Bacterial Strains: Escherichia coli EC1001 acc(6′)-Ib
Method: as §1

[8] = system: ECM6007 aac(6′) + aph(2″); test: microbe, parasite or virus in culture; format: cell-based, Escherichia coli; conditions: Escherichia coli, 18 h; Table 4; read-out: Compound MIC on Bacterial Strains: Escherichia coli ECM6007 aac(6′) + aph(2″)
Method: as §1

[9] = system: ACM1005 ATCC 19004; test: MIC, broth microdilution; format: cell-based, Acinetobacter baumannii; conditions: Acinetobacter baumannii, ATCC19004; Table 4; read-out: Compound MIC on Bacterial Strains: Acinetobacter baumannii ACM1005 ATCC 19004
Method: as §1

[10] = system: ACM1006 acc(6′)-Ib; test: microbe, parasite or virus in culture; format: cell-based, Acinetobacter baumannii; conditions: Acinetobacter baumannii; Table 4; read-out: Compound MIC on Bacterial Strains: Acinetobacter baumannii ACM1006 acc(6′)-Ib
Method: as §1

[11] = system: Sa 287 aac(6′) + aph(2″); test: microbe, parasite or virus in culture; format: cell-based, Staphylococcus aureus; conditions: Staphylococcus aureus, 18 h; Table 5; read-out: Compound MIC on Bacterial Strains: Staphylococcus aureus Sa 287 aac(6′) + aph(2″)
Method: as §1

[12] = system: Escherichia coli (ATCC 25922); test: MIC, broth microdilution; conditions: Escherichia coli
[13] = system: Staphylococcus aureus (ATCC 29213); test: MIC, broth microdilution; conditions: Staphylococcus aureus
[14] = system: Klebsiella pneumonia (ATCC 43816); test: MIC, broth microdilution; conditions: Klebsiella pneumoniae, ATCC43816, read-out: Compound MIC on Bacterial Strains: K. pneumonia ATCC 43816
[15] = system: Pseudomonas aeruginosa (ATCC 27853); test: MIC, broth microdilution; conditions: Pseudomonas aeruginosa
[16] = system: Acinetobacter baumannii (ATCC 19606); test: MIC, broth microdilution; conditions: Acinetobacter baumannii, ATCC19606, read-out: Compound MIC on Bacterial Strains: A. baumannii ATCC 19606
[17] = system: PAM3072 aac(6′)-II; test: microbe, parasite or virus in culture; format: cell-based, Pseudomonas aeruginosa; conditions: Pseudomonas aeruginosa, Table 5; read-out: Compound MIC on Bacterial Strains: Pseudomonas aeruginosa PAM3072 aac(6′)-II
Method: as §1

[18] = system: PAM3073 aac(6′)-I; test: microbe, parasite or virus in culture; format: cell-based, Pseudomonas aeruginosa; conditions: Pseudomonas aeruginosa, Table 5; read-out: Compound MIC on Bacterial Strains: Pseudomonas aeruginosa PAM3073 aac(6′)-I
Method: as §1

[19] = ATCC25922, read-out: Compound MIC on Bacterial Strains: E. coli ATCC 25922
[20] = ATCC25922, read-out: Compound MIC on Bacterial Strains: ECM6000 ATCC 25922
[21] = ATCC25922, read-out: Compound MIC on Bacterial Strains: Escherichia coli ECM6000 ATCC 25922
[22] = ATCC29213, read-out: Compound MIC on Bacterial Strains: S. aureus ATCC 29213, QC strain, Table 2
[23] = ATCC29213, read-out: Compound MIC on Bacterial Strains: Staphylococcus aureus SAM1000 ATCC 29213, Table 5
[24] = ATCC27853, read-out: Compound MIC on Bacterial Strains: P. aeruginosa ATCC 27853
[25] = ATCC27853, read-out: Compound MIC on Bacterial Strains: Pseudomonas aeruginosa PAM3034 ATCC 27853

| Compound | MIC [1] [µg/mL] | MIC [2] [µg/mL] | MIC [3] [µg/mL] | MIC [4] [µg/mL] | MIC [5] [µg/mL] | MIC [6] [µg/mL] | MIC [7] [µg/mL] | MIC [8] [µg/mL] | MIC [9] [µg/mL] | MIC [10] [µg/mL] | MIC [12, 19] [µg/mL] | MIC [12, 20] [µg/mL] | MIC [12, 21] [µg/mL] | MIC [13, 22] [µg/mL] | MIC [13, 23] [µg/mL] | MIC [14] [µg/mL] | MIC [15, 24] [µg/mL] | MIC [15, 25] [µg/mL] | MIC [16] [µg/mL] | MIC [17] [µg/mL] | further results |
| --- | --- | --- | --- | --- | --- | --- | --- | --- | --- | --- | --- | --- | --- | --- | --- | --- | --- | --- | --- | --- | --- |
| NCC[C@H](O)C(=O)N[C@@H]1C[C@H](N)[C@@H](O[C@H]2O[C@H](CN)[C@@H](O)[C@H](O)[C@H]2O)[C@H](O)[C@H]1O[C@H]1O[C@H](CO)[C@@H](O)[C@H](N)[C@H]1O [Amikacin, reference compound] | 1 to 8 (≈ 1.71 to 13.7 µM) | < 1 | 1 to 8 (≈ 1.71 to 13.7 µM) | 1 to 8 (≈ 1.71 to 13.7 µM) | > 8 | > 8 | > 8 | < 1 | < 1 | 1 to 8 (≈ 1.71 to 13.7 µM) | 1 to 8 (≈ 1.71 to 13.7 µM) | 1 to 8 (≈ 1.71 to 13.7 µM) | 1 to 8 (≈ 1.71 to 13.7 µM) | 1 to 8 (≈ 1.71 to 13.7 µM) | < 1 | < 1 | 1 to 8 (≈ 1.71 to 13.7 µM) | 1 to 8 (≈ 1.71 to 13.7 µM) | 1 to 8 (≈ 1.71 to 13.7 µM) |  | MIC [11]: > 8 µg/mL |
| CN[C@@H]1C(O)[C@@H](OC2C(O)C(O[C@H]3O[C@H](CN)CCC3N)[C@@H](N)C[C@H]2NC(=N)CO)OCC1(C)O (stereo partly drawn) [Compound 22, N-((1R,2S,3S,4R,5S)-5-amino-4-((2R,3R,6S)-3-amino-6-(aminomethyl)tetrahydro-2H-pyran-2-vlxy)-2-((2R,3R,4R,5R)-3,5-dihydroxy-5-methyl-4-(methylamino)tetrahydro-2H-pyran-2-yloxy)-3-hydroxycyclohexyl)-2-hydroxy acetimidamide] | 1 to 8 (≈ 1.97 to 15.8 µM) | > 8 | > 8 | 1 to 8 (≈ 1.97 to 15.8 µM) | > 8 | 1 to 8 (≈ 1.97 to 15.8 µM) | > 8 | 1 to 8 | 1 to 8 (≈ 1.97 to 15.8 µM) | > 8 | 1 to 8 (≈ 1.97 to 15.8 µM) | 1 to 8 (≈ 1.97 to 15.8 µM) | 1 to 8 (≈ 1.97 to 15.8 µM) | < 1 | < 1 | < 1 | < 1 | 1 to 8 (≈ 1.97 to 15.8 µM) | > 8 | > 8 | MIC [18]: 1 to 8 µg/mL (≈ 1.97 to 15.8 µM) |
| CN[C@@H]1[C@@H](O)[C@@H](O[C@@H]2[C@@H](O)[C@H](O[C@H]3O[C@H](CNCCO)CC[C@H]3N)[C@@H](N)C[C@H]2NC(=O)[C@@H](O)CCCN)OC[C@]1(C)O [Compound 40, (S)-5-amino-N-((1R,2S,3S,4R,5S)-5-amino-4-((2R,3R,6S)-3-amino-6-((2-hydroxyethylamino)methyl)tetrahydro-2H-pyran-2-yloxy)-2-((2R,3R,4R,5R)-3,5-dihydroxy-5-methyl-4-(methylamino)tetrahydro-2H-pyran-2-yloxy)-3-hydroxycyclohexyl)-2-hydroxypentanamide] | 1 to 8 (≈ 1.64 to 13.1 µM) | < 1 | < 1 | < 1 | > 8 | 1 to 8 (≈ 1.64 to 13.1 µM) | 1 to 8 (≈ 1.64 to 13.1 µM) | < 1 | 1 to 8 (≈ 1.64 to 13.1 µM) | 1 to 8 (≈ 1.64 to 13.1 µM) | 1 to 8 (≈ 1.64 to 13.1 µM) | 1 to 8 (≈ 1.64 to 13.1 µM) | 1 to 8 (≈ 1.64 to 13.1 µM) | 1 to 8 (≈ 1.64 to 13.1 µM) | 1 to 8 (≈ 1.64 to 13.1 µM) | < 1 | > 8 | > 8 | > 8 | > 8 | MIC [18]: 1 to 8 µg/mL (≈ 1.64 to 13.1 µM) |
| CN[C@@H]1[C@@H](O)[C@@H](O[C@@H]2[C@@H](O)[C@H](O[C@H]3O[C@H](CNCCO)CC[C@H]3N)[C@@H](N)C[C@H]2NC(=O)C2(O)CNC2)OC[C@]1(C)O [Compound 43, N-((1R,2S,3S,4R,5S)-5-amino-4-((2R,3R,6S)-3-amino-6-((2-hydroxyethylamino)methyl)tetrahydro-2H-pyran-2-yloxy)-2-((2R,3R,4R,5R)-3,5-dihydroxy-5-methyl-4-(methylamino)tetrahydro-2H-pyran-2-yloxy)-3-hydroxycyclohexyl)-3-hydroxyazetidine-3-carboxamide] | < 1 | 1 to 8 (≈ 1.69 to 13.5 µM) | < 1 | < 1 | > 8 | 1 to 8 (≈ 1.69 to 13.5 µM) | 1 to 8 (≈ 1.69 to 13.5 µM) | < 1 | 1 to 8 (≈ 1.69 to 13.5 µM) | < 1 | < 1 | < 1 | < 1 | < 1 | < 1 | < 1 | 1 to 8 (≈ 1.69 to 13.5 µM) | 1 to 8 (≈ 1.69 to 13.5 µM) | > 8 | > 8 | MIC [18]: 1 to 8 µg/mL (≈ 1.69 to 13.5 µM) |
| CN[C@@H]1[C@@H](O)[C@@H](O[C@@H]2[C@@H](O)[C@H](O[C@H]3O[C@H](CNCCF)CC[C@H]3N)[C@@H](N)C[C@H]2NC(=O)[C@@H](O)CN)OC[C@]1(C)O [Compound 46, (S)-3-amino-N-((1R,2S,3S,4R,5S)-5-amino-4-((2R,3R,6S)-3-amino-6-((2-fluoroethylamino)methyl)tetrahydro-2H-pyran-2-yloxy)-2-((2R,3R,4R,5R)-3,5-dihydroxy-5-methyl-4-(methylamino)tetrahydro-2H-pyran-2-yloxy)-3-hydroxycyclohexyl)-2-hydroxypropanamide] | < 1 | < 1 | < 1 | < 1 | > 8 | < 1 | 1 to 8 (≈ 1.72 to 13.7 µM) | < 1 | 1 to 8 (≈ 1.72 to 13.7 µM) | 1 to 8 (≈ 1.72 to 13.7 µM) | < 1 | < 1 | < 1 | < 1 | < 1 | < 1 | 1 to 8 (≈ 1.72 to 13.7 µM) | 1 to 8 (≈ 1.72 to 13.7 µM) | > 8 | > 8 | MIC [18]: 1 to 8 µg/mL (≈ 1.72 to 13.7 µM) |
| CCN[C@@H]1C[C@H](N)[C@@H](O[C@H]2OC(CN)=CC[C@H]2N)[C@H](O)[C@H]1O[C@H]1OC[C@](C)(O)[C@H](NC)[C@H]1O [Netilmicin, reference compound] | < 1 | > 8 | < 1 | < 1 | > 8 | < 1 | > 8 | < 1 | 1 to 8 (≈ 2.1 to 16.8 µM) | > 8 | < 1 | < 1 | < 1 | < 1 | < 1 | < 1 | 1 to 8 (≈ 2.1 to 16.8 µM) | 1 to 8 (≈ 2.1 to 16.8 µM) | > 8 | > 8 | MIC [18]: > 8 µg/mL |
